From ChEMBL document CHEMBL4024727, “Synthesis and antimycobacterial screening of new thiazolyl-oxazole derivatives” (Eur J Med Chem, 2017)
Converted amounts (≈) assume the structure as drawn.

Key:
Bacillus subtilis [1] = assay: Growth inhibition of Bacillus subtilis NCIM 2162 at 30 ug/ml measured after 12 hrs relative to control; type: functional; settings: NCIM 2162, 12 h, read-out: GI
Bacillus subtilis [2] = assay: Growth inhibition of Bacillus subtilis NCIM 2162 at 10 ug/ml measured after 12 hrs relative to control; type: functional; settings: NCIM 2162, 12 h, read-out: GI
[3] = test system: Mycobacterium tuberculosis; assay: Growth inhibition of Mycobacterium tuberculosis H37Ra ATCC 25177 at 30 ug/ml by XTT dye based two-fold dilution method relative to control; type: functional; settings: read-out: GI
[4] = Selectivity index, ratio of GI50 for human HeLa cells to MIC for Mycobacterium bovis BCG ATCC 35743 dormant stage; type: toxicity, cell-based; settings: read-out: Selectivity Index
Pseudomonas fluorescens [5] = assay: Growth inhibition of Pseudomonas fluorescens NCIM 2059 at 1 ug/ml measured after 8 hrs relative to control; type: functional; settings: NCIM 2059, 8 h, read-out: GI
[6] = test system: Mycobacterium tuberculosis; assay: Growth inhibition of Mycobacterium bovis BCG ATCC 35743 at 30 ug/ml by nitrate reductase based two-fold dilution assay relative to control; type: functional; settings: BCG str. ATCC 35743, read-out: GI
[7] = (§1) Growth inhibition of human HeLa cells by MTT assay; type: cell-based; settings: HeLa cells
HeLa = assay: as §1; type: cell-based; settings: hela
[8] = test system: Mycobacterium tuberculosis; assay: Antitubercular activity against Mycobacterium bovis BCG ATCC 35743 dormant stage by nitrate reductase based two-fold dilution assay; type: functional; settings: BCG str. ATCC 35743
Escherichia coli [9] = assay: Growth inhibition of Escherichia coli NCIM 2576 at 30 ug/ml measured after 8 hrs relative to control; type: functional; settings: NCIM 2576, 8 h, read-out: GI
Escherichia coli [10] = assay: Growth inhibition of Escherichia coli NCIM 2576 at 10 ug/ml measured after 8 hrs relative to control; type: functional; settings: NCIM 2576, 8 h, read-out: GI
[11] = Selectivity index, ratio of GI50 for human A549 cells to MIC for Mycobacterium tuberculosis H37Ra ATCC 25177 dormant stage; type: toxicity; settings: read-out: Selectivity Index
[12] = test system: Mycobacterium tuberculosis; assay: Growth inhibition of Mycobacterium bovis BCG ATCC 35743 at 1 ug/ml by nitrate reductase based two-fold dilution assay relative to control; type: functional; settings: BCG str. ATCC 35743, read-out: GI
Escherichia coli [13] = assay: Antibacterial activity against Escherichia coli NCIM 2576 measured after 8 hrs; type: functional; settings: NCIM 2576, 8 h
Pseudomonas fluorescens [14] = assay: Growth inhibition of Pseudomonas fluorescens NCIM 2059 at 30 ug/ml measured after 8 hrs relative to control; type: functional; settings: NCIM 2059, 8 h, read-out: GI
Staphylococcus aureus [15] = assay: Antibacterial activity against Staphylococcus aureus NCIM 2602 measured after 12 hrs; type: functional; settings: NCIM 2602, 12 h
[16] = (§2) Growth inhibition of human A549 cells by MTT assay; type: cell-based; settings: A549 cells
A549 = assay: as §2; type: cell-based; settings: a549
[17] = Selectivity index, ratio of GI50 for human PANC1 cells to MIC for Mycobacterium bovis BCG ATCC 35743 dormant stage; type: toxicity; settings: PANC-1 cells, read-out: Selectivity Index
Pseudomonas fluorescens [18] = assay: Growth inhibition of Pseudomonas fluorescens NCIM 2059 at 10 ug/ml measured after 8 hrs relative to control; type: functional; settings: NCIM 2059, 8 h, read-out: GI
[19] = Selectivity index, ratio of GI50 for human A549 cells to MIC for Mycobacterium bovis BCG ATCC 35743 dormant stage; type: toxicity; settings: read-out: Selectivity Index
[20] = Selectivity index, ratio of GI50 for human PANC1 cells to MIC for Mycobacterium tuberculosis H37Ra ATCC 25177 dormant stage; type: toxicity; settings: PANC-1 cells, read-out: Selectivity Index
[21] = test system: Mycobacterium tuberculosis; assay: Growth inhibition of Mycobacterium bovis BCG ATCC 35743 at 10 ug/ml by nitrate reductase based two-fold dilution assay relative to control; type: functional; settings: BCG str. ATCC 35743, read-out: GI
[22] = test system: Mycobacterium tuberculosis; assay: Growth inhibition of Mycobacterium tuberculosis H37Ra ATCC 25177 at 3 ug/ml by XTT dye based two-fold dilution method relative to control; type: functional; settings: read-out: GI
Pseudomonas fluorescens [23] = assay: Antibacterial activity against Pseudomonas fluorescens NCIM 2059 measured after 8 hrs; type: functional; settings: NCIM 2059, 8 h
PANC-1 = assay: (§3) Growth inhibition of human PANC1 cells by MTT assay; type: cell-based; settings: panc-1
[24] = as §3; type: cell-based, PANC-1; settings: PANC-1 cells
Staphylococcus aureus [25] = assay: Growth inhibition of Staphylococcus aureus NCIM 2602 at 10 ug/ml measured after 12 hrs relative to control; type: functional; settings: NCIM 2602, 12 h, read-out: GI
Escherichia coli [26] = assay: Growth inhibition of Escherichia coli NCIM 2576 at 1 ug/ml measured after 8 hrs relative to control; type: functional; settings: NCIM 2576, 8 h, read-out: GI
[27] = Selectivity index, ratio of GI50 for human HeLa cells to MIC for Mycobacterium tuberculosis H37Ra ATCC 25177 dormant stage; type: toxicity, cell-based; settings: read-out: Selectivity Index
Staphylococcus aureus [28] = assay: Growth inhibition of Staphylococcus aureus NCIM 2602 at 1 ug/ml measured after 12 hrs relative to control; type: functional; settings: NCIM 2602, 12 h, read-out: GI
Bacillus subtilis [29] = assay: Growth inhibition of Bacillus subtilis NCIM 2162 at 1 ug/ml measured after 12 hrs relative to control; type: functional; settings: NCIM 2162, 12 h, read-out: GI
Staphylococcus aureus [30] = assay: Growth inhibition of Staphylococcus aureus NCIM 2602 at 30 ug/ml measured after 12 hrs relative to control; type: functional; settings: NCIM 2602, 12 h, read-out: GI
Bacillus subtilis [31] = assay: Antibacterial activity against Bacillus subtilis NCIM 2162 measured after 12 hrs; type: functional; settings: NCIM 2162, 12 h
[32] = test system: Mycobacterium tuberculosis; assay: Growth inhibition of Mycobacterium tuberculosis H37Ra ATCC 25177 at 10 ug/ml by XTT dye based two-fold dilution method relative to control; type: functional; settings: read-out: GI
[33] = test system: Mycobacterium tuberculosis; assay: Antitubercular activity against Mycobacterium tuberculosis H37Ra ATCC 25177 dormant stage by XTT dye based two-fold dilution method; type: functional

SMILES | inhibition of growth at 30 µg/mL (Bacillus subtilis [1]) [%] | inhibition of growth at 10 µg/mL (Bacillus subtilis [2]) [%] | inhibition of growth at 30 µg/mL [3] [%] | selectivity ratio [4] | inhibition of growth at 1 µg/mL (Pseudomonas fluorescens [5]) [%] | inhibition of growth at 30 µg/mL [6] [%] | GI50 [7] [µg/mL] | GI90 (HeLa) [µg/mL] | IC50 [8] [nM] | MIC90 [8] [µM] | inhibition of growth at 30 µg/mL (Escherichia coli [9]) [%] | inhibition of growth at 10 µg/mL (Escherichia coli [10]) [%] | selectivity ratio [11] | inhibition of growth at 1 µg/mL [12] [%] | MIC (Escherichia coli [13]) | inhibition of growth at 30 µg/mL (Pseudomonas fluorescens [14]) [%] | MIC (Staphylococcus aureus [15]) | GI50 [16] [µg/mL] | GI90 (A549) [µg/mL] | selectivity ratio [17] | other results
Cc1nc(-c2ccc(F)cc2)oc1-c1csc(Cc2ccc(F)cc2)n1 | 96.7 | 88.2 | 93 | 146 | 78.6 | 96 | 94.9 (≈ 258 µM) | > 250 | 190 | 1.76 (≈ 0.648 µg/mL) | 94.8 | 85.2 | 391 | 93 | 60.3 µM | 95.9 | 62.7 µM | > 250 | > 250 | 385 | inhibition of growth at 10 µg/mL (Pseudomonas fluorescens [18]): 83.2%; selectivity ratio [19]: 385; selectivity ratio [20]: 391; inhibition of growth at 10 µg/mL [21]: 95%; inhibition of growth at 3 µg/mL [22]: 91%; MIC (Pseudomonas fluorescens [23]): 54.8 µM; GI90 (PANC-1): > 250 µg/mL; GI50 [24]: > 250 µg/mL; inhibition of growth at 10 µg/mL (Staphylococcus aureus [25]): 82.1%; inhibition of growth at 1 µg/mL (Escherichia coli [26]): 72.2%; selectivity ratio [27]: 148; inhibition of growth at 1 µg/mL (Staphylococcus aureus [28]): 80%; inhibition of growth at 1 µg/mL (Bacillus subtilis [29]): 83.5%; inhibition of growth at 30 µg/mL (Staphylococcus aureus [30]): 94.1%; MIC (Bacillus subtilis [31]): 39.1 µM; inhibition of growth at 10 µg/mL [32]: 93%; IC50 [33]: 180 nM; MIC90 [33]: 1.74 µM (≈ 0.641 µg/mL)
Cc1nc(-c2ccccc2)oc1-c1csc(-c2ccccc2)n1 | 96.8 | 93.2 | 93 | 5 | 88.9 | 92 | 123 (≈ 387 µM) | > 250 | 7340 | 85.9 (≈ 27.4 µg/mL) | 98.2 | 94.2 | 9 | 63 | 7.54 µM | 97.7 | 39.3 µM | > 250 | > 250 | 9 | inhibition of growth at 10 µg/mL (Pseudomonas fluorescens [18]): 93.4%; selectivity ratio [19]: 9; selectivity ratio [20]: 9; inhibition of growth at 10 µg/mL [21]: 63%; inhibition of growth at 3 µg/mL [22]: 56%; MIC (Pseudomonas fluorescens [23]): 13.8 µM; GI90 (PANC-1): > 250 µg/mL; GI50 [24]: > 250 µg/mL; inhibition of growth at 10 µg/mL (Staphylococcus aureus [25]): 89.9%; inhibition of growth at 1 µg/mL (Escherichia coli [26]): 91.2%; selectivity ratio [27]: 4; inhibition of growth at 1 µg/mL (Staphylococcus aureus [28]): 85.7%; inhibition of growth at 1 µg/mL (Bacillus subtilis [29]): 91.3%; inhibition of growth at 30 µg/mL (Staphylococcus aureus [30]): 94.2%; MIC (Bacillus subtilis [31]): 7.91 µM; inhibition of growth at 10 µg/mL [32]: 71%; IC50 [33]: 8660 nM; MIC90 [33]: 87.5 µM (≈ 27.9 µg/mL)
Cc1nc(-c2ccccc2)oc1-c1csc(Cc2ccc(Cl)cc2)n1 | 90.4 | 85.2 | 98 | 58 | 81 | 97 | 124 (≈ 339 µM) | > 250 | 320 | 5.8 (≈ 2.13 µg/mL) | 97.9 | 84.5 | 95 | 96 | 18.3 µg/mL | 95 | 22.7 µg/mL | > 250 | > 250 | 117 | inhibition of growth at 10 µg/mL (Pseudomonas fluorescens [18]): 87.3%; selectivity ratio [19]: 117; selectivity ratio [20]: 95; inhibition of growth at 10 µg/mL [21]: 97%; inhibition of growth at 3 µg/mL [22]: 92%; MIC (Pseudomonas fluorescens [23]): 18 µg/mL; GI90 (PANC-1): > 250 µg/mL; GI50 [24]: > 250 µg/mL; inhibition of growth at 10 µg/mL (Staphylococcus aureus [25]): 85.6%; inhibition of growth at 1 µg/mL (Escherichia coli [26]): 78.7%; selectivity ratio [27]: 47; inhibition of growth at 1 µg/mL (Staphylococcus aureus [28]): 79.1%; inhibition of growth at 1 µg/mL (Bacillus subtilis [29]): 74.2%; inhibition of growth at 30 µg/mL (Staphylococcus aureus [30]): 92.4%; MIC (Bacillus subtilis [31]): 27.6 µg/mL; inhibition of growth at 10 µg/mL [32]: 93%; IC50 [33]: 350 nM; MIC90 [33]: 7.19 µM (≈ 2.64 µg/mL)
Cc1nc(-c2ccccc2)oc1-c1csc(Cc2cccc(Cl)c2)n1 | 92 | 86.8 | 98 | 50 | 79.3 | 95 | 68.7 (≈ 187 µM) | > 250 | 760 | 3.76 (≈ 1.38 µg/mL) | 95.9 | 88.7 | 195 | 94 | 15.4 µg/mL | 95.8 | 25.6 µg/mL | > 250 | > 250 | 181 | inhibition of growth at 10 µg/mL (Pseudomonas fluorescens [18]): 82.7%; selectivity ratio [19]: 181; selectivity ratio [20]: 195; inhibition of growth at 10 µg/mL [21]: 94%; inhibition of growth at 3 µg/mL [22]: 96%; MIC (Pseudomonas fluorescens [23]): 20.9 µg/mL; GI90 (PANC-1): > 250 µg/mL; GI50 [24]: > 250 µg/mL; inhibition of growth at 10 µg/mL (Staphylococcus aureus [25]): 81.3%; inhibition of growth at 1 µg/mL (Escherichia coli [26]): 74.7%; selectivity ratio [27]: 54; inhibition of growth at 1 µg/mL (Staphylococcus aureus [28]): 73.2%; inhibition of growth at 1 µg/mL (Bacillus subtilis [29]): 80.3%; inhibition of growth at 30 µg/mL (Staphylococcus aureus [30]): 92.2%; MIC (Bacillus subtilis [31]): 21.7 µg/mL; inhibition of growth at 10 µg/mL [32]: 97%; IC50 [33]: 230 nM; MIC90 [33]: 3.49 µM (≈ 1.28 µg/mL)
